Results on four molecules are retold here after US12516058B2, “Small-molecule compounds for controlling endosomal toll-like receptors and therapeutic agent for autoimmune diseases using same” (priority 2020, dated 2026).

SMILES strings stand for the structures. “Also recorded” adds a separate entry of the source.

Data set [1] concerns the target T1, TLR5 (Homo sapiens, UniProt O60602).
T1 construct: endogenous in cells; host or cells: THP-1 (differentiated)
The data set can be described thus: TNF-α secretion ELISA after FLA-ST in differentiated THP-1 cells. The data set is classed as cell-based. How it is done:
In order to determine the inhibitory activity of the test-ligand against TLR5, differentiated THP-1 cells were pretreated with each compound for 1 hour and then treated with FLA-ST ([…] flagellar protein, TLR5, Invitrogen) for 4 hours. After activation of the TLRs, the supernatant was diluted and transferred to a pre-coated 96-well assay plate, and the level of human TNF-alpha secretion was measured in accordance with the manufacturer's instructions using the human TNF-alpha ELISA-kit (Invitrogen).
(§1) In order to determine the inhibitory activities of SK41, SK50, SK58 and SK64 on various TLR signaling pathways, RAW 264.7 cells were cultured along with each compound and then stimulated with different TLR agonists. The TLR agonists used herein were Pam3CSK4 (TLR1/2), FSL-1 (TLR2/6), LPS (TLR4) and FLA-ST (TLR5) as cell surface TLRs, and poly I:C (TLR3) and TL8-506 (TLR8) as endosomal TLRs.
For orientation: ELISA stands for enzyme-linked immunosorbent assay.

The target in data set [2] is T2, TLR4 (Mus musculus, UniProt Q9QUK6).
T2 construct: endogenous in cells; host or cells: RAW 264.7
T2 sequence (Q9QUK6 26-835): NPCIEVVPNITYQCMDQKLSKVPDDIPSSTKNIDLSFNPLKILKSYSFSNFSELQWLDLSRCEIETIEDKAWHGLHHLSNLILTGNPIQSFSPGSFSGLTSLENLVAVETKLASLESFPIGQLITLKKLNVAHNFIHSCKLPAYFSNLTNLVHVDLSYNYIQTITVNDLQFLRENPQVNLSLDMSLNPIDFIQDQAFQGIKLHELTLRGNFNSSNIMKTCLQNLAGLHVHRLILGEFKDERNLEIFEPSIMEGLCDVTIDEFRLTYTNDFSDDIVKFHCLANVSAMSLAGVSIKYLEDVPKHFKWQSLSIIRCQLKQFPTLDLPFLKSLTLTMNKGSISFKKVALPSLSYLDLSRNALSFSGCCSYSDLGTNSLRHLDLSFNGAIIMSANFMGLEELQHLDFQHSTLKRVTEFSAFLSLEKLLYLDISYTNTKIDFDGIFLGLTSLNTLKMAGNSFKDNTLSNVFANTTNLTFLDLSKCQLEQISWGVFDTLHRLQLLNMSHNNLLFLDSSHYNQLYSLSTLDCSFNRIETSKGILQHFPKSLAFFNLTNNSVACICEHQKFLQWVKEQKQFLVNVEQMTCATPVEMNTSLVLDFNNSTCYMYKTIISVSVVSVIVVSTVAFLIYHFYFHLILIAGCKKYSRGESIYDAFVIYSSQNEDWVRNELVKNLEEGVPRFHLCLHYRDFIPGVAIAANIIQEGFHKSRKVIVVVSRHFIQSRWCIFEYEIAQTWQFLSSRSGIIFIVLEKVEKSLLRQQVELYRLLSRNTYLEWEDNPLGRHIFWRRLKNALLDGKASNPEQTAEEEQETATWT
T2 sequence (Q9JHF9 19-160 partner): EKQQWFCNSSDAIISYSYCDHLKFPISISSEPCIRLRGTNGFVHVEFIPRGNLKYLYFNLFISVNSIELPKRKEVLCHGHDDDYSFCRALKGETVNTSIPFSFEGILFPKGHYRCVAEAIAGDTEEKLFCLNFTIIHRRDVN
The data set can be described thus: TNF-α secretion ELISA after LPS in RAW 264.7 cells. The data set is classed as cell-based. How it is done:
In order to determine the inhibitory activities of the test-ligand, RAW 264.7 cells were pretreated with each candidate compound for 1 hour, then treated with Pam3CSK4 (synthetic triacyl lipopeptide; TLR1/2, Invitrogen), FSL-1 (synthetic diacyl lipoprotein, TLR2/6, 100 ng/ml), lipopolysaccharide (LPS, TLR4, Sigma Aldrich), imiquimod (IMQ, TLR7, Invitrogen), and ODN2395 (type C CpG repeat motif DNA oligo(5′-[…]-3), TLR9, Bioneer) ligand for 4 hours, and treated with poly I:C (I:C repeat motif double-stranded RNA, TLR3, Invitrogen) and TL8-506 (TLR8, Invitrogen) showing delayed reactivity for 24 hours. After activation of TLR, the supernatant was diluted in an appropriate ratio so as to measure within the standard dose range, transferred to a pre-coated 96-well assay plate, and then treated with mouse TNF-alpha secretion level in accordance with the manufacturer's instructions using a mouse-TNF-alpha ELISA-kit (Invitrogen).
as §1

For data set [3], the system named is MRL/lpr (MRL/Fas^lpr) mice. Description: MRL/lpr systemic lupus erythematosus mouse model, oral administration. The data set is classed as in vivo. The conditions noted are these: for change in body weight (index for long-term administration toxicity): daily oral, monitored at 3-day intervals; for antinuclear antibody (ANA) in blood plasma / C3 complement in blood plasma: end of experiment, ELISA, vs vehicle and HCQ 60 mg/Kg; for antinuclear antibody (ANA) in blood plasma: reaches normal as it decreases; for C3 complement in blood plasma: reaches normal as it increases; for visual (apparent) healing effect: oral once a day for 4 weeks, 15 mg/Kg for SK series and HCQ; for visual therapeutic effects: oral once a day, SK series 30 mg/Kg, HCQ 60 mg/Kg. Here is the method:
14-weeks-old, 36-40 g, female MRL/lpr (or MRL/Fas^lpr) mice (purchased from the Jackson Laboratory, USA through Orient Bio) were used for the lupus treatment effect experiment and breeding was performed in accordance with the breeding and ethics regulations of the Laboratory Animal Research Center of the Ajou University Medical Center. Prior to the experiment, 4 to 5 animals were randomly assigned to each of a negative control group (Vehicle), a positive control group (HCQ), and an experimental compound group (SK41, SK50, SK58 and SK64) for blinding, and each of SK41, SK50, SK58, and SK64 compounds was completely dissolved in a vehicle consisting of ethanol (ethyl alcohol) 10%, polyethylene glycol 400 40% and sterile distilled water 50%, and then the solution was orally administered to experimental animals.
As for the administration method, only the same amount of vehicle was administered to the negative control group, 15-60 MPK (15-60 mg/Kg) of HCQ was administered daily to the positive control group, and SK41, SK50, SK58 and SK64 was administered daily in an amount of 15-30 MPK (15-30 mg/Kg) to the experimental compound group, […] experimental mice were 14 weeks old.
As for the sample collection method, the weight of the experimental mice was measured at 3-day intervals, and the mice were subjected to inhalational anesthesia and euthanasia using IFRAN liquid (Hana Pharmaceutical, Korea; ingredient name: Isoflurane) on the day of expiry of 40 days, and then blood, kidney, spleen and axillary lymph nodes and inguinal lymph nodes were collected therefrom.
Blood samples were collected from the heart of an anesthetized mouse, the serum was extracted therefrom using a serum separation tube and a centrifuge (4,000 rpm, 10 minutes, 4° C.), and blood concentrations of ANA (anti-nuclear Antibody, MyBioSourse, USA) as a lupus severity indicator molecule and C3 complement (MyBioSourse, USA), a comprehensive inflammatory indicator molecule, were measured through enzyme-linked immunosorbent assay (ELISA).
Organs were treated with an RNA stabilization agent (RNA Stabilization Reagent, Germany, QUIAGEN) immediately after extraction to preserve the condition and prepare specimens, the organs were imaged and weighed to determine whether or not the organs are damaged and to measure the degree of immune organ hypertrophy, and the sum of the weights of one pair of axillary lymph nodes and one pair of inguinal lymph nodes was recorded as the weight of the lymph nodes.

The mark [4] stands for this setting: after administration for 40 days, 30 mg/Kg.

T1 sequence (O60602 21-858): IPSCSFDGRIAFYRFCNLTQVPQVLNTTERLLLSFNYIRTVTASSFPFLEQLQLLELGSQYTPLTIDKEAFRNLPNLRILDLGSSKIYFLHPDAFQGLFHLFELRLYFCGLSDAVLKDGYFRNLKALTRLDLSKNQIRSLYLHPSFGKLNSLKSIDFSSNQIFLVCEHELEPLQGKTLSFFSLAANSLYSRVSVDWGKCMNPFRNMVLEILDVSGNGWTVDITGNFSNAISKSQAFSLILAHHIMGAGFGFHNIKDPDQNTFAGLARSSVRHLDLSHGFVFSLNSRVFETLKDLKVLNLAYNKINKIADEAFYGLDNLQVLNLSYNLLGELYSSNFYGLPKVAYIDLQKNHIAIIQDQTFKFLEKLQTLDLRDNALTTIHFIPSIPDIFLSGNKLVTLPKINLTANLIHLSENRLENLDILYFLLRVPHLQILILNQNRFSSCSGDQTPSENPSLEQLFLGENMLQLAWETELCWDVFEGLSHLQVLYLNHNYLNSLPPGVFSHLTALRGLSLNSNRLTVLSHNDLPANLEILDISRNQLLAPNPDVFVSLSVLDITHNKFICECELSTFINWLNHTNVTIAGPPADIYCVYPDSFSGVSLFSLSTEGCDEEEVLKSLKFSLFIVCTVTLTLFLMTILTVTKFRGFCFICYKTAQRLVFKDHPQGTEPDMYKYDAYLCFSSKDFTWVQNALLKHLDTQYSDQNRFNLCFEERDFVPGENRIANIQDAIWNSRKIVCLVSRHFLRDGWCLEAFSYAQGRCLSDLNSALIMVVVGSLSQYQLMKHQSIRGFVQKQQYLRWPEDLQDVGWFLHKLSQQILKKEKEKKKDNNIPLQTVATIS

For the molecule `Cc1ccc2c(c1)c1c(N)c3c(nc1n2CCCN(C)C)CCCC3` [SK58, 6-(3-(dimethylamino)propyl)-9-methyl-2,3,4,6-tetrahydro-1H-indolo[2,3-b]quinolin-11-amine], in data set [1], the “inhibitory activity against cell surface TLR5 (TNF-α secretion)” value is listed as “did not exhibit a specific inhibitory activity; also recorded: no inhibitory activities”. In addition, the “inhibitory activity against cell surface TLR4 (TNF-α secretion)” value in data set [2] is given as “did not exhibit a specific inhibitory activity; also recorded: no inhibitory activities”. For the same molecule, in data set [3] (setting [4]), the “appearance of the lymph nodes” value is “relatively good”, the “weight of the lymph node” value is reported as “relatively less swollen” and the “weight of the spleen” value is recorded as “relatively less swollen”. Further, in data set [3], the “change in body weight (index for long-term administration toxicity)” value is recorded as “did not exhibit a change in body weight”, the “antinuclear antibody (ANA) in blood plasma” value is “significant results; also recorded: low antinuclear antibody”, the “C3 complement in blood plasma” value is “significant results; also recorded: high C3 complement” and the “visual (apparent) healing effect” value is “superior visual (apparent) healing effect to that of HCQ”. Besides, the visual therapeutic effects entry in data set [3] was “superior to HCQ”.
As to `COc1ccc2c(c1)c1c(N)c3c(nc1n2CCCN(C)C)CCCC3` [SK50, 6-(3-(dimethylamino)propyl)-9-methoxy-2,3,4,6-tetrahydro-1H-indolo[2,3-b]quinolin-11-amine], the “inhibitory activity against cell surface TLR5 (TNF-α secretion)” value in data set [1] is listed as “did not exhibit a specific inhibitory activity; also recorded: no inhibitory activities”. The “inhibitory activity against cell surface TLR4 (TNF-α secretion)” value in data set [2] is on record as “did not exhibit a specific inhibitory activity; also recorded: no inhibitory activities”. In data set [3], the “change in body weight (index for long-term administration toxicity)” value is “did not exhibit a change in body weight”.
Turning to `Cc1cc2c(N)c3c(nc2n1CCCN(C)C)CCCCCC3` [SK41, 1-(3-(dimethylamino)propyl)-2-methyl-5,6,7,8,9,10-hexahydro-1H-cycloocta[b]pyrrolo[3,2-e]pyridin-4-amine], the “inhibitory activity against cell surface TLR5 (TNF-α secretion)” value in data set [1] is reported as “did not exhibit a specific inhibitory activity; also recorded: no inhibitory activities”. The “inhibitory activity against cell surface TLR4 (TNF-α secretion)” value in data set [2] is given as “did not exhibit a specific inhibitory activity; also recorded: no inhibitory activities”. Besides, in data set [3] (setting [4]), the “appearance of the lymph nodes” value is “small inguinal lymph node sizes”. Further, in data set [3], the “change in body weight (index for long-term administration toxicity)” value is “did not exhibit a change in body weight”, the “antinuclear antibody (ANA) in blood plasma” value was “significant results”, the “C3 complement in blood plasma” value is given as “significant results” and the “visual (apparent) healing effect” value is given as “superior visual (apparent) healing effect to that of HCQ”. In data set [3], the visual therapeutic effects entry was “superior to HCQ”.
As to `COC(=O)c1ccc2c(c1)c1c(N)c3c(nc1n2CCCN(C)C)CCCC3` [SK64, Methyl 11-amino-6-(3-(dimethylamino)propyl)-2,3,4,6-tetrahydro-1H-indolo[2,3-b]quinolin-9-carboxylate], the “inhibitory activity against cell surface TLR5 (TNF-α secretion)” value in data set [1] is reported as “did not exhibit a specific inhibitory activity; also recorded: no inhibitory activities”. Besides, the “inhibitory activity against cell surface TLR4 (TNF-α secretion)” value in data set [2] is “did not exhibit a specific inhibitory activity; also recorded: no inhibitory activities”. In data set [3], the “change in body weight (index for long-term administration toxicity)” value is on record as “did not exhibit a change in body weight” and the visual therapeutic effects result is on record as “superior to HCQ”.
